According to patent US6465479B1, “Pyridomorphinans and use thereof” (Southern Research Institute, priority 1999, dated 2002):
Values joined by “and” are separate entries in the source; they are usually repeats but may differ in a detail not shown here. Identical values can stand only once. “Also recorded” adds a separate entry of the source. Like-named read-outs stand apart in the source and are kept apart here.

Assays:
[1] = system: μ opioid receptor (PL-017) in the GPI preparation; settings: data from published sources; cited from earlier work
κ receptors = κ receptors (Cavia porcellus, UniProt P41144); settings: read-out: K1 (nM) ± SEM K1 (κ); displacement of [3H]U69,593 (1.2-[…]), guinea pig brain membranes
Sequence of κ receptors (P41144 whole entry): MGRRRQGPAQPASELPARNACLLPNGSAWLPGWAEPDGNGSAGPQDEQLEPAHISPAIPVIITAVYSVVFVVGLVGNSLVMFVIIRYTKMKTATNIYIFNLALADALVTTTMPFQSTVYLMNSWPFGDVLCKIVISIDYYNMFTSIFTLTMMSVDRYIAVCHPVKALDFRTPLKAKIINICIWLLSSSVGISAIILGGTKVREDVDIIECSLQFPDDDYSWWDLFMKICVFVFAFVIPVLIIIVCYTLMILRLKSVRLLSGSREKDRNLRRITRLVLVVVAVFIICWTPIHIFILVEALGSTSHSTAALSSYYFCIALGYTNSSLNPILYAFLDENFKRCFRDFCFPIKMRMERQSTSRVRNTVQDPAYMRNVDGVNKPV

δ receptors = δ receptors (Rattus norvegicus, UniProt P33533); settings: read-out: K1 (nM) ± SEM δ; displacement of [3H]DADLE (1.3-2.0 nM), rat brain membranes, 100 nM DAMGO to block μ sites
Sequence of δ receptors (P33533 whole entry): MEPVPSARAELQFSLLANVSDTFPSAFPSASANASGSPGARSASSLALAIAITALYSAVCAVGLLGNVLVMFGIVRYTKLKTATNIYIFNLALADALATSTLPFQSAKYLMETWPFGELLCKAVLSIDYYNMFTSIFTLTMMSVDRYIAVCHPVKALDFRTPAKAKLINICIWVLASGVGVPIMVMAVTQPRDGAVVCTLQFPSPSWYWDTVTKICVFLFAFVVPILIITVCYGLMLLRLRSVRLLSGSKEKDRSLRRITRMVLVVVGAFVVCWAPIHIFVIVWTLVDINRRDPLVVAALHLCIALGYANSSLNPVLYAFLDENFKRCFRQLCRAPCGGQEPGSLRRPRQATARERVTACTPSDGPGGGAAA

mouse vas deferens (MVD) [2] = settings: percentage inhibition of contraction at 1 μM; data from published sources; cited from earlier work
[3] = target: T1, δ opioid receptor (DPDPE) in the MVD preparation (Mus musculus, UniProt P32300); settings: data from published sources; cited from earlier work
T1 construct: electrically stimulated mouse vas deferens (MVD) and guinea pig ileum (GPI) smooth muscle preparations; from tissue; host or cells: mouse vas deferens
T1 sequence (P32300 whole entry): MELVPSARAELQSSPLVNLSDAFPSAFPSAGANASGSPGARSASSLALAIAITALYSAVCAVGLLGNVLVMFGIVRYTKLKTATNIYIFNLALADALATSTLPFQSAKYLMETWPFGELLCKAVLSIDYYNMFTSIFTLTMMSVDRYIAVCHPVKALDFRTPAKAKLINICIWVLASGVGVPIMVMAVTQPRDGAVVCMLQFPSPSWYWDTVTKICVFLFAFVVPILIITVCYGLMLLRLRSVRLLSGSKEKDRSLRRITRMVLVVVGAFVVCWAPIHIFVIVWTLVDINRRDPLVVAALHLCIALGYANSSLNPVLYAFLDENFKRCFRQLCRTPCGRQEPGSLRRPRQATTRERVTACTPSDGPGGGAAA

male ICR mice [4] = assay: 55° C. warm-water tail-flick test, antinociception; format: in vivo, mouse; settings: for agonist character in tail-flick, i.c.v.: icv injection
Description: (§1) In the following examples, male ICR mice(20-30 grams) were used. […] The solution was brought up to approximately pH 5.5 with 1.74 M NaOH and then the final volume adjusted with distilled water. […] Additional compounds used in these studies were dissolved in distilled water (i.c.v. injections) or physiological saline (i.p. injections).
(§2) Antinociception was assessed using either the 55° C. warm-water tail-flick test or the acetic-acid writhing assay. […] Each mouse was first tested for baseline latency by immersing its tail in the water and recording the time to response. Mice not responding within 5 sec were excluded from further testing. Mice were then administered the test compound and tested for antinociception at 10, 20, 30, 45, 60 and 90 min post-injection. A maximum score was assigned (100%) to animals not responding within 15 sec to avoid tissue damage. Antinociception was calculated by the following formula: % antinociception=100×(test latency-control latency)/(15-control latency). For the acetic acid writhing test, mice were injected i.p. with 0.9% acetic acid. They were then placed in a clear Plexiglas observation jar and the number of abdominal writhes recorded for 15 min (Mogil et al., Heritability of nociception I: responses of 11 inbred mouse strains on 12 measures of nociception. Pain 80:67-82,1999). Percent antinociception was calculated using the formula: % MPE (maximum possible effect)=100−((#writhes individual mouse/mean # writhes control group)×100).

male ICR mice [5] = assay: Acetic acid writhing assay, antinociception, tolerance and antagonist pretreatment; format: in vivo, mouse; settings: for Repeated Injections A50 (95% C.I.) i.c.v. / Control A50 (95% C.I.) i.c.v. / Repeated Injections A50 (95% C.I.) i.p. / Control A50 (95% C.I.) i.p.: acetic acid writhing; for Repeated Injections A50 (95% C.I.) i.c.v. / Repeated Injections A50 (95% C.I.) i.p.: after A90 dose ×2 daily, 3 days; for Control A50 (95% C.I.) i.c.v. / Control A50 (95% C.I.) i.p.: control mice
Description: as §1, §2
Control mice received a vehicle injection (5 μl distilled water, i.c.v., −24 hr).

morphine pretreated mice = assay: Acute morphine physical dependence, precipitated withdrawal (vertical jumps)
guinea pig ileum (GPI) = assay: Opioid agonist activity in electrically stimulated guinea pig ileum (GPI); format: cell-based
μ receptors = target: T2, μ receptors (Rattus norvegicus, UniProt P33535); assay: μ opioid receptor binding, displacement of [3H]DAMGO in rat brain membranes; settings: displacement of [3H]DAMGO (1.4-3.0 nM), read-out: K1 (nM) ± SEM μ
T2 construct: from tissue; host or cells: rat brain membranes
T2 sequence (P33535 whole entry): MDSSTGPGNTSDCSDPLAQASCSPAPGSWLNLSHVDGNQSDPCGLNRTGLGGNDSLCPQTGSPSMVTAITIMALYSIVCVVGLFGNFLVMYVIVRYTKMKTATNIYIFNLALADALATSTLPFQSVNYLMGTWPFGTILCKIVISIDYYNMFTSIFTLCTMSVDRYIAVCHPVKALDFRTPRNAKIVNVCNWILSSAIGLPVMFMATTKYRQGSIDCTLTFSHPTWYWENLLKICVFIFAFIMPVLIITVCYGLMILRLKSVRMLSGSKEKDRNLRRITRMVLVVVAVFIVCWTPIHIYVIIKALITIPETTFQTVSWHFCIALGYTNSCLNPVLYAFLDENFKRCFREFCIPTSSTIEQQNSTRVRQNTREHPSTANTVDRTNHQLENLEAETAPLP

kappa (U69,593) = target: T3, kappa (U69,593) (Mus musculus, UniProt P33534); assay: Antagonism of kappa agonist U69,593 antinociception in the 55° C. tail-flick test; format: in vivo
T3 construct: male ICR mice(20-30 grams) were used; from tissue; host or cells: whole animal (male ICR mice), tail-flick test
T3 sequence (P33534 whole entry): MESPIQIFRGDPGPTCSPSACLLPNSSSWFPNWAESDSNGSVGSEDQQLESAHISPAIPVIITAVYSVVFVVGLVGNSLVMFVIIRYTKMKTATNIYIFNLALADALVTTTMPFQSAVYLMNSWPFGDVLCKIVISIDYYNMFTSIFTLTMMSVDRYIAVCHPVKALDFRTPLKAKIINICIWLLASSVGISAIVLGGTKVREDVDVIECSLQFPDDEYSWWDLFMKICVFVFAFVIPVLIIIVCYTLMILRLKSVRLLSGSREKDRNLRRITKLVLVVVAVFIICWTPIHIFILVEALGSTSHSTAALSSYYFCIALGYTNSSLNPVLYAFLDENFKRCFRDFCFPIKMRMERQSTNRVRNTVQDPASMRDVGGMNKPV
Description: as §2
(§3) Mice were then injected with A90 doses of selective mu, delta or kappa agonists and antinociception was assessed in the 55° C. tail-flick test.

mouse vas deferens (MVD) [6] = assay: Opioid agonist activity in electrically stimulated mouse vas deferens (MVD); format: cell-based; settings: percentage inhibition of contraction at 1 μM
Description: The opioid agonist and antagonist potencies were determined on the electrically stimulated mouse vas deferens (MVD) and guinea pig ileum (GPI) smooth muscle preparations.

mice = assay: Overt signs of toxicity in mice during the antinociceptive studies; settings: dose ranges tested
mu (DAMGO) = target: T4, mu (DAMGO) (Mus musculus, UniProt P42866); assay: Antagonism of mu agonist DAMGO antinociception in the 55° C. tail-flick test; format: in vivo
T4 construct: male ICR mice(20-30 grams) were used; from tissue; host or cells: whole animal (male ICR mice), tail-flick test
T4 sequence (P42866 whole entry): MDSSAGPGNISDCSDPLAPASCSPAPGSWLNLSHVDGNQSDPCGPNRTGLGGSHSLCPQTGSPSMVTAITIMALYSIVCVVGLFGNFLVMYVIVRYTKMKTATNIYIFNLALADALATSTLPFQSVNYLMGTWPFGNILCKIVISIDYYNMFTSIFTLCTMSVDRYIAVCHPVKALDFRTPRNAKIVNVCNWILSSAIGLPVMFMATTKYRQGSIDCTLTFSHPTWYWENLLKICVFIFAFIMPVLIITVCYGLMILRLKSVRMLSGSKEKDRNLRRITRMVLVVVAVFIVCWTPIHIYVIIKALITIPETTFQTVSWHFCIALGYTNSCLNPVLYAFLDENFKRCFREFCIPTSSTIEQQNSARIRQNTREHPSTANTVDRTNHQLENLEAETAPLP
Description: as §2, §3

delta-1 (DPDPE) = target: T5, delta-1 (DPDPE) (Mus musculus, UniProt P32300); assay: Antagonism of delta-1 agonist DPDPE antinociception in the 55° C. tail-flick test; format: in vivo
T5 construct: male ICR mice(20-30 grams) were used; from tissue; host or cells: whole animal (male ICR mice), tail-flick test
T5 sequence (P32300 whole entry): as the sequence (P32300 whole entry) above
Description: as §2, §3

[7] = target: T6, delta-2 ([D-Ala2, Glu4]deltorphin) (Mus musculus, UniProt P32300); assay: Antagonism of delta-2 agonist [D-Ala2, Glu4]deltorphin antinociception in the 55° C. tail-flick test; format: in vivo
T6 construct: male ICR mice(20-30 grams) were used; from tissue; host or cells: whole animal (male ICR mice), tail-flick test
T6 sequence (P32300 whole entry): as above
Description: as §2, §3

For `Oc1ccc2c3c1O[C@H]1c4[nH]c5ccccc5c4C[C@@]4(O)[C@@H](C2)N(CC2CC2)CC[C@]314` [naltrindole], the “antagonist activity PL-017 (μ) Ke” value [1] is listed as 43 nM, the Ki (κ receptors) is listed as 35.8 ± 4 nM and the Ki (δ receptors) is listed as 0.41 ± 0.09 nM. The “agonist activity MVD % max resp” value (mouse vas deferens (MVD) [2]) was 16% and the “antagonist activity DPDPE (δ) Ke” value [3] was 0.49 nM.
For `CN1CC[C@]23c4c5ccc(O)c4O[C@H]2[C@@H](O)C=C[C@H]3[C@H]1C5` [morphine, reference compound], the A50 tail-flick i.c.v. (male ICR mice [4]; 55° C. tail-flick, mice) was 2.94 nmol and 1.7 nmol, the A50 tail-flick i.p. (male ICR mice [4]; 55° C. tail-flick, i.p., mice) was 8.0 mg/kg and the “agonist character in tail-flick, i.c.v.” value (male ICR mice [4]; 55° C. tail-flick) was “full agonist effect”. For the same molecule, the “Repeated Injections A50 (95% C.I.) i.c.v.” value (male ICR mice [5]) was 0.05 nmol (0.03-0.08, the “Control A50 (95% C.I.) i.c.v.” value (male ICR mice [5]) was 0.004 nmol and the “Control A50 (95% C.I.) i.c.v.” value (male ICR mice [5]; listed as Morphine) was 0.004 nmol (0.003-0.006. The “Repeated Injections A50 (95% C.I.) i.p.” value (male ICR mice [5]) was 4.78 mg/kg (3.7-6.2 and the “Control A50 (95% C.I.) i.p.” value (male ICR mice [5]) was 2.2 mg/kg (1.8-2.7.
With `Oc1ccc2c3c1O[C@H]1c4ncc(-c5ccc(Cl)cc5)cc4C[C@@]4(O)[C@@H](C2)N(CC2CC2)CC[C@]314` [Compound 6d, 5′-(4-Chlorophenyl)-17-(Cyclopropylmethyl)-6,7-didehydro-3,14-dihydroxy-4,5α-epoxypyrido[2′3′:6,7]morphinan] the “vertical jumps precipitated in morphine pretreated mice” value (morphine pretreated mice; 10 mg/kg i.p., 4 hr after morphine 100 mg/kg, vs naloxone 10 mg/kg i.p., p<0.001) was “significantly less vertical jumps than naloxone injection”, the “attenuation of naloxone precipitated withdrawal (jumps)” value (morphine pretreated mice; coadministration 6d 10 mg/kg i.p. + naloxone 10 mg/kg i.p., p<0.05) was “significantly less jumps than naloxone alone; also recorded: attenuated opioid withdrawal” and the “agonist character in the GPI” value (guinea pig ileum (GPI)) was “full agonist”. The IC50 (guinea pig ileum (GPI); Cavia porcellus, agonist) was 163 nM, the “% MPE tail flick” value (male ICR mice [4]; 100 nmol i.c.v., mice) was 40.3 % MPE and the A50 tail-flick i.c.v. (male ICR mice [4]; 55° C. tail-flick, mice) was “greater than 100 nmol”. For the same molecule, the “agonist character in tail-flick, i.c.v.” value (male ICR mice [4]; 55° C. tail-flick) was “only partial agonist effects”, the “antinociceptive effect in tail flick, i.p.” value (male ICR mice [4]; i.p., doses up to 60 mg/kg) was “no measurable antinociceptive effect” and the Ki (μ receptors) was 51 ± 8 nM. The “ID50 (mg/kg) against U69,593” value (kappa (U69,593); i.p. pretreatment -20 min, A90 i.c.v. agonist 60 nmol, tail-flick) was >60 mg/kg, the “effect on antinociception of kappa agonist U69,593, in words” value (kappa (U69,593); i.p., doses of up to 60 mg/kg) was “did not affect” and the “agonist activity MVD % max resp” value (mouse vas deferens (MVD) [6]) was 21%. The “overt signs of toxicity” value (mice) was “did not display any overt signs of toxicity”, the “ID50 (mg/kg) against DAMGO” value (mu (DAMGO); i.p. pretreatment -20 min, A90 i.c.v. agonist 0.1 nmol) was 28.9 mg/kg and the “antagonism of mu agonist DAMGO, in words” value (mu (DAMGO); i.p., compared with delta-2) was “much less potent”. For the same molecule, the Ki (κ receptors) was 20 ± 1.04 nM, the Ki (δ receptors) was 2.2 ± 0.16 nM and the “ID50 (mg/kg) against DPDPE” value (delta-1 (DPDPE); i.p. pretreatment -20 min, A90 i.c.v. agonist 30 nmol) was 15.3 mg/kg. For the same molecule, the “antagonism of delta-1 agonist DPDPE, in words” value (delta-1 (DPDPE); i.p., compared with delta-2) was “much less potent”, the number of writhes (male ICR mice [5]; 30 nmol i.c.v. (A90), vs vehicle, p<0.001) was “significantly decreased the number of writhes” and the “Repeated Injections A50 (95% C.I.) i.c.v.” value (male ICR mice [5]) was 10.9 nmol (7.2-16.5. The “Repeated Injections A50 (95% C.I.) i.p.” value (male ICR mice [5]) was 3.85 mg/kg (0.9-16.0, the “Control A50 (95% C.I.) i.p.” value (male ICR mice [5]) was 4.6 mg/kg (2.5-8.6 and the “agonist character in acetic acid writhing, i.c.v.” value (male ICR mice [5]; icv injection) was “full agonist activity”. The “blockade of antinociception by delta or kappa antagonist pretreatment” value (male ICR mice [5]; naltrindole 20 mg/kg i.p. -20 min (p>0.99) or nor-BNI 1 nmol i.c.v. -24 hr (p>0.13), 6d 30 nmol i.c.v.) was “not by naltrindole (p>0.99) or nor-BNI”, the “blockade of antinociception by mu antagonist pretreatment” value (male ICR mice [5]; β-FNA 19 nmol i.c.v. -24 hr, 6d 30 nmol i.c.v., p<0.002) was “blocked by pre-treatment with β-FNA” and the “antagonism of delta-2 agonist, in words” value ([7]; i.p.) was “potently antagonized”. The “ID50 (mg/kg) against [D-Ala2, Glu4]deltorphin” value ([7]; i.p. pretreatment -20 min, A90 i.c.v. agonist 20 nmol) was 3.4 mg/kg.
